The record followed here is publication PMC5986790, “Rational Discovery of (+) (S) Abscisic Acid as a Potential Antifungal Agent: a Repurposing Approach” (Scientific Reports, 2018).

Assay [1] concerns the target T1, yeast chorismate mutase (Saccharomyces cerevisiae, UniProt P32178). Description: HPLC of chorismic acid and phenylpyruvate (prephenate converted by acid). The format is biochemical. Also noted: gene ARO7; native enzyme in crude sonicated yeast cell extract, not purified; homodimer (known biology); 256 residues. The following applies: 1 mM chorismic acid; yeast sonicate; Tris-HCl pH 8; 30 °C; ABA 10-500 µM.

In assay [2] the target is T1, yeast chorismate mutase. The assay is classed as biochemical. Further details: gene ARO7; native enzyme in crude sonicated yeast cell extract, not purified; homodimer (known biology); 256 residues. The note with it: 1 mM chorismic acid; yeast sonicate; Tris-HCl pH 8; 30 °C.
In assay [3] the target is T1, yeast chorismate mutase. Also noted: gene ARO7. The note with it: 1 mM chorismic acid; yeast sonicate; Tris-HCl pH 8; 30 °C; tyrosine 10-500 µM; allosteric.

T1 sequence (P32178 whole entry): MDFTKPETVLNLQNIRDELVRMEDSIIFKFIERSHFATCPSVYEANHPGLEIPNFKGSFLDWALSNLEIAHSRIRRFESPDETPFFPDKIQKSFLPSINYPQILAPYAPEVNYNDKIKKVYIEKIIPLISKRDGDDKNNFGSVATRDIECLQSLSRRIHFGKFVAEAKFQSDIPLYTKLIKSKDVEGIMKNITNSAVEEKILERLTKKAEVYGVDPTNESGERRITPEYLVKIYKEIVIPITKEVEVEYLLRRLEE

As to `CC1=CC(=O)CC(C)(C)[C@@]1(O)/C=C/C(C)=C\C(=O)O` [(+)-Abscisic acid, 5-(1-hydroxy-2,6,6-trimethyl-4-oxo-2-cyclohexene-1-yl)-3-methyl-pentadienoic acid], the “inhibitory concentration (range, not an IC50)” value against yeast chorismate mutase [1] lay in the range of 200 to 300 µM. As to `C=C(O[C@@H]1C=C(C(=O)O)C=C[C@H]1O)C(=O)O` [chorismic acid], the “HPLC of chorismic acid and phenylpyruvate (prephenate converted by acid)” value at yeast chorismate mutase [2] is listed as “yeast chorismate mutase catalysed the conversion of externally added chorismic acid to prephenic acid”. Consider `N[C@@H](Cc1ccc(O)cc1)C(=O)O` [Tyrosine], for which the “optimal inhibitor concentration (not an IC50)” value on yeast chorismate mutase [3] came to 100 µM.
